The text below walks through data of US10640534B2 (Agios Pharmaceuticals, Inc., priority 2012, dated 2020).

The test system of the assay is U87MG cells. The experiment in a line: Cellular assay, inhibition of 2-HG production in U87MG cells. It counts as cell-based. The note with it: Homo sapiens, U-87 MG, 48 h. Summed up:
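HT1080 or U87MG cells (U87MG kept with 500 ug/mL G418) seeded at 5000 cells/well and treated with compound at 0.2% final DMSO. Incubated 48 h at 37 °C. 2-HG inhibition determined by LC-MS. Viability read by CellTiter-Glo luminescence at 72 h post-dose.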

Where only a bound is given, the exact number is not on record here.

For orientation: IC50 means the point on the concentration scale where inhibition reaches its midpoint. Read a low IC50 as greater potency in that assay.

Compound `N#Cc1ccnc(N2C(=O)[C@H](O)C[C@H]2C(=O)N(c2cc(F)cc(F)c2)[C@@H](C(=O)NC2CC(F)(F)C2)c2ccccc2Cl)n1` [Compound 116, (2S,4R)—N—((R)-1-(2-Chlorophenyl)-2-((3,3-difluorocyclobutyl)amino)-2-oxoethyl)-1-(4-cyanopyrimidin-2-yl)-N-(3,5-difluorophenyl)-4-hydroxy-5-oxopyrrolidine-2-carboxamide] came in with an IC50 of 100 to 500 nM.
`N#Cc1ccnc(N2C(=O)CC[C@H]2C(=O)N(c2cccc(C3CC3)c2)[C@H](C(=O)NC2CC(F)(F)C2)c2ccccc2Cl)c1` [Compound 173, (S)—N—((S)-1-(2-Chlorophenyl)-2-((3,3-difluorocyclobutyl)amino)-2-oxoethyl)-1-(4-cyanopyridin-2-yl)-N-(3-cyclopropylphenyl)-5-oxopyrrolidine-2-carboxamide] yielded an IC50 below 100 nM.
Under `N#Cc1cccnc1N1C(=O)CC[C@H]1C(=O)N(c1cccc(F)c1)[C@H](C(=O)NC1CC(F)(F)C1)c1ccccc1Cl` [Compound 69, (S)—N—((S)-1-(2-Chlorophenyl)-2-((3,3-difluorocyclobutyl)amino)-2-oxoethyl)-1-(3-cyanopyridin-2-yl)-N-(3-fluorophenyl)-5-oxopyrrolidine-2-carboxamide] stands below 100 nM; under `N#Cc1ccnc(N2C(=O)CC[C@H]2C(=O)N(c2cccc(OC(F)(F)F)c2)C(C(=O)NC2CC(F)(F)C2)c2ccccc2Cl)n1` (stereo partly drawn) [Compound 180, (2S)—N-(1-(2-Chlorophenyl)-2-((3,3-difluorocyclobutyl)amino)-2-oxoethyl)-1-(4-cyanopyrimidin-2-yl)-5-oxo-N-(3-(trifluoromethoxy)phenyl)pyrrolidine-2-carboxamide], below 100 nM; under `N#Cc1ccnc(N2C(=O)CC[C@H]2C(=O)N(c2cncc(F)c2)[C@H](C(=O)NC2CC(F)(F)C2)c2ccccc2F)c1` [Compound 148, (S)-1-(4-Cyanopyridin-2-yl)-N—((S)-2-((3,3-difluorocyclobutyl)amino)-1-(2-fluorophenyl)-2-oxoethyl)-N-(5-fluoropyridin-3-yl)-5-oxopyrrolidine-2-carboxamide], below 100 nM.
As for `O=C(NC1CC(F)(F)C1)[C@H](c1ccccc1Cl)N(C(=O)[C@@H]1CCC(=O)N1c1ncccn1)c1cccc(F)c1` [Compound 1], the figure is 100 to 500 nM; as for `CS(=O)(=O)c1cccc(N(C(=O)[C@@H]2CCC(=O)N2c2cc(C#N)ccn2)C(C(=O)NC2CC(F)(F)C2)c2ccccc2Cl)c1` (stereo partly drawn) [Compound 96, (2S)—N-(1-(2-Chlorophenyl)-2-((3,3-difluorocyclobutyl)amino)-2-oxoethyl)-1-(4-cyanopyridin-2-yl)-N-(3-(methylsulfonyl)phenyl)-5-oxopyrrolidine-2-carboxamide], below 100 nM.
As for `N#Cc1ccnc(N2C(=O)[C@H](O)C[C@H]2C(=O)N(c2cccc(F)c2)[C@@H](C(=O)NC2CCC(F)(F)CC2)c2ccccc2Cl)n1` [Compound 122, (2S,4R)—N—((R)-1-(2-Chlorophenyl)-2-((4,4-difluorocyclohexyl)amino)-2-oxoethyl)-1-(4-cyanopyrimidin-2-yl)-N-(3-fluorophenyl)-4-hydroxy-5-oxopyrrolidine-2-carboxamide], the figure is 100 to 500 nM.
In the case of `CS(=O)(=O)c1cc(F)cc(N(C(=O)[C@@H]2CCC(=O)N2c2cc(C#N)ccn2)C(C(=O)NC2CCC(F)(F)CC2)c2ccccc2Cl)c1` (stereo partly drawn) [Compound 105, (2S)—N-(1-(2-Chlorophenyl)-2-((4,4-difluorocyclohexyl)amino)-2-oxoethyl)-1-(4-cyanopyridin-2-yl)-N-(3-fluoro-5-(methylsulfonyl)phenyl)-5-oxopyrrolidine-2-carboxamide], the IC50 was below 100 nM.
`C[S@+]([O-])c1cc(F)cc(N(C(=O)[C@@H]2CCC(=O)N2c2cc(C#N)ccn2)[C@H](C(=O)NC2CC(F)(F)C2)c2ccccc2Cl)c1` [Compound 190, (S)—N—((S)-1-(2-Chlorophenyl)-2-(3,3-difluorocyclobutylamino)-2-oxoethyl)-1-(4-cyanopyridin-2-yl)-N-(3-fluoro-5-((S)-methylsulfinyl)phenyl)-5-oxopyrrolidine-2-carboxamide] showed an IC50 below 100 nM.
As for `N#Cc1ccnc(N2C(=O)N(CCO)C[C@H]2C(=O)N(c2cccc(F)c2)C(C(=O)NC2CC(F)(F)C2)c2ccccc2Cl)c1` (stereo partly drawn) [Compound 112, (4S)—N-(1-(2-Chlorophenyl)-2-(3,3-difluorocyclobutyl-amino)-2-oxoethyl)-3-(4-cyanopyridin-2-yl)-N-(3-fluorophenyl)-1-(2-hydroxyeth-yl)-2-oxoimidazolidine-4-carboxamide], the figure is below 100 nM; as for `N#Cc1ccnc(N2C(=O)CC[C@H]2C(=O)N(c2cc(F)cc(F)c2)[C@H](C(=O)NC2CC(F)(F)C2)c2ccccc2)c1` [Compound 210, (S)-1-(4-Cyanopyridin-2-yl)-N—((S)-2-(3,3-difluorocyclobutylamino)-2-oxo-1-phenylethyl)-N-(3,5-difluorophenyl)-5-oxopyrrolidine-2-carboxamide], below 100 nM.
As for `N#Cc1ccnc(N2C(=O)[C@H](O)C[C@H]2C(=O)N(c2cc(F)cc(F)c2)[C@H](C(=O)NC2CC(F)(F)C2)c2ccccc2Cl)n1` [Compound 117, (2S,4R)—N—((S)-1-(2-Chlorophenyl)-2-((3,3-difluorocyclobutyl)amino)-2-oxoethyl)-1-(4-cyanopyrimidin-2-yl)-N-(3,5-difluorophenyl)-4-hydroxy-5-oxopyrrolidine-2-carboxamide], the figure is below 100 nM.
The compound `N#Cc1ccnc(N2C(=O)CC[C@H]2C(=O)N(c2cccc(F)c2F)[C@H](C(=O)NC2CC(F)(F)C2)c2ccccc2Cl)c1` [Compound 188, (S)—N—((S)-1-(2-Chlorophenyl)-2-((3,3-difluorocyclobutyl)amino)-2-oxoethyl)-1-(4-cyanopyridin-2-yl)-N-(2,3-difluorophenyl)-5-oxopyrrolidine-2-carboxamide] showed an IC50 below 100 nM.
As for `CS(=O)(=O)c1cc(F)cc(N(C(=O)[C@@H]2CCC(=O)N2c2nccc(C#N)n2)[C@H](C(=O)NC2CC(F)(F)C2)c2ccccc2Cl)c1` [Compound 109, (S)—N—((S)-1-(2-Chlorophenyl)-2-((3,3-difluorocyclobutyl)amino)-2-oxoethyl)-1-(4-cyanopyrimidin-2-yl)-N-(3-fluoro-5-(methylsulfonyl)phenyl)-5-oxopyrrolidine-2-carboxamide], the figure is 100 to 500 nM.
The compound `N#Cc1ccnc(N2C(=O)[C@H](O)C[C@H]2C(=O)N(c2cc(F)cc(F)c2)[C@H](C(=O)NC2CC(F)(F)C2)c2ccccc2Cl)c1` [Compound 115, (2S,4R)—N—((S)-1-(2-Chlorophenyl)-2-((3,3-difluorocyclobutyl)amino)-2-oxoethyl)-1-(4-cyanopyridin-2-yl)-N-(3,5-difluorophenyl)-4-hydroxy-5-oxopyrrolidine-2-carboxamide] came in with an IC50 below 100 nM.
Under `O=C(NC1CCC(F)(F)CC1)[C@H](c1ccccc1Cl)N(C(=O)[C@@H]1CCC(=O)N1c1cnccn1)c1cccc(F)c1` [Compound 58, (S)—N—((S)-1-(2-Chlorophenyl)-2-(4,4-difluorocyclohexylamino)-2-oxoethyl)-N-(3-fluorophenyl)-5-oxo-1-(pyrazin-2-yl)pyrrolidine-2-carboxamide] stands below 100 nM; under `N#Cc1cc(F)cc(N(C(=O)[C@@H]2CCC(=O)N2c2cc(C#N)ccn2)[C@H](C(=O)NC2CC(F)(F)C2)c2ccccc2F)c1` [Compound 207, (S)—N-(3-Cyano-5-fluorophenyl)-1-(4-cyanopyridin-2-yl)-N—((S)-2-((3,3-difluorocyclobutyl)amino)-1-(2-fluorophenyl)-2-oxoethyl)-5-oxopyrrolidine-2-carboxamide], below 100 nM; under `N#Cc1ccnc(N2C(=O)OCC[C@H]2C(=O)N(c2cncc(F)c2)[C@H](C(=O)NC2CC(F)(F)C2)c2ccccc2Cl)c1` [Compound 143, (S)—N—((S)-1-(2-Chlorophenyl)-2-((3,3-difluorocyclobutyl)amino)-2-oxoethyl)-3-(4-cyanopyridin-2-yl)-N-(5-fluoropyridin-3-yl)-2-oxo-1,3-oxazinane-4-carboxamide], below 100 nM.
As for `N#Cc1ccnc(N2C(=O)[C@H](O)C[C@H]2C(=O)N(c2cccc(F)c2)[C@H](C(=O)NC2CC(F)(F)C2)c2ccccc2Cl)n1` [Compound 120, (2S,4R)—N—((S)-1-(2-Chlorophenyl)-2-((3,3-difluorocyclobutyl)amino)-2-oxoethyl)-1-(4-cyanopyrimidin-2-yl)-N-(3-fluorophenyl)-4-hydroxy-5-oxopyrrolidine-2-carboxamide], the figure is 100 to 500 nM.
`O=C(NC1CC(F)(F)C1)C(c1ccccc1Cl)N(C(=O)[C@@H]1CCC(=O)N1c1ccccc1)c1cccc(F)c1` (stereo partly shown) [Compound 23] displayed a half-inhibitory concentration (IC50) of 100 to 500 nM.
As for `N#Cc1cnc(N2C(=O)CC[C@H]2C(=O)N(c2cc(F)cc(F)c2)[C@H](C(=O)NC2CC(F)(F)C2)c2ccccc2Cl)o1` [Compound 162, (S)—N—((S)-1-(2-chlorophenyl)-2-((3,3-difluorocyclobutyl)amino)-2-oxoethyl)-1-(5-cyanooxazol-2-yl)-N-(3,5-difluorophenyl)-5-oxopyrrolidine-2-carboxamide], the figure is below 100 nM; as for `N#Cc1ccnc(N2C(=O)CC[C@H]2C(=O)N(c2cc(F)cc(F)c2)[C@H](C(=O)NC2CCC(F)(F)CC2)c2ccccc2Cl)n1` [Compound 87, (S)—N—((S)-1-(2-Chlorophenyl)-2-((4,4-difluorocyclohexyl)amino)-2-oxoethyl)-1-(4-cyanopyrimidin-2-yl)-N-(3,5-difluorophenyl)-5-oxopyrrolidine-2-carboxamide], below 100 nM; as for `N#Cc1ccnc(N2C(=O)CC[C@H]2C(=O)N(c2cc(F)cc(F)c2)[C@H](C(=O)NC2CCC(F)(F)CC2)c2ccccc2Cl)c1` [Compound 81, (2S)—N-(1-(2-Chlorophenyl)-2-(4,4-difluorocyclohexylamino)-2-oxoethyl)-1-(4-cyanopyridin-2-yl)-N-(3,5-difluorophenyl)-5-oxopyrrolidine-2-carboxamide], below 100 nM.
Compound `N#Cc1ccnc(N2C(=O)CC[C@H]2C(=O)N(c2cccc(OCCO)c2)[C@H](C(=O)NC2CC(F)(F)C2)c2ccccc2Cl)c1` (single isomer, unassigned) [Compound 130] came in with an IC50 below 100 nM.
